# Reference: patent US20130323721A1, “HEPATOCYTES FOR IN VITRO GENOTOXICITY TESTS” (MEDICYTE GMBH, priority 2010, published 2013)
# Read-outs that look alike come from different tables or passages of the source.
# Assays:
# [1] = test system: V79 cells; details: with or without S9 mix; cited from earlier work
# [2] = test system: proliferating hepatocytes; assay: Micronucleus formation in proliferating hepatocytes, FACS assay
# Procedure: So as to check the suitability of the proliferatable hepatocytes described in the patent with respect to genotoxicity tests, the cells were treated with substances that are considered positive and negative substances for genotoxicity. Genotoxicity was quantified by way of the share of induced micronuclei as compared to the control group using an FACS assay.
# The proliferating hepatocytes described in the invention were plated out in a density of 3000 cells/cm^2 on collagen-coated cell culture vessels and treated with the aforementioned substances in various concentrations. Within the scope of regulatory testing according to OECD, testing took place up to 50% cytotoxicity, which was determined for each substance beforehand by way of a MTT viability assay.
# [3] = test system: bacteria (auxotrophic mutants); details: with S9 fraction of hamster liver; cited from earlier work
smiles,measurement,setting,value
"O=P1(N(CCCl)CCCl)NCCCO1 (stereo not shown) [CPA, cyclophosphamide]",Detection of genotoxicity in micronucleus test,[1],only detected in the currently used micronucleus test with V79 cells if the substance was previously converted with a CYP enzyme extract (S9 mix)
same,Genotoxicity: induced micronuclei compared to the control group,"[2]; various concentrations up to 50% cytotoxicity, no external S9, FIGS. 2-4",clearly recognized as being positive
COc1cc(/C=C/C(=O)CC(=O)/C=C/c2ccc(O)c(OC)c2)ccc1O [curcumin],Genotoxicity: induced micronuclei compared to the control group,[2],did not induce increased micronuclei formation
CCOc1ccc(NC(C)=O)cc1 [phenacetin],Ames test result (mutagenicity),[3],only tested positively in the Ames test if an incubation of phenacetin is carried out with the S9 fraction of hamster liver
